Data published in patent publication US20230390303A1, “CANCER TREATMENT BY COMBINATION OF EP4 ANTAGONIST AND IMMUNE CHECKPOINT INHIBITOR” (priority 2020, published 2023).

Key:
Format in all cases: in vivo, human
[1] = tested on: radically unresectable advanced or recurrent colonic/rectal cancer; assay: Open-label, uncontrolled study: Compound A, Nivolumab and XELOX plus Bevacizumab therapy as primary treatment; settings: Compound A 20 mg or 40 mg orally once a day + Nivolumab 360 mg IV at 3-week intervals + XELOX plus Bevacizumab therapy; RECIST Guideline 1.1; 10 months after the first patient was registered
Source text: The purpose of this study is to examine the tolerability, safety, and efficacy of a combination of Compound A, Nivolumab, and XELOX plus Bevacizumab therapy as a primary treatment in patients with radically unresectable advanced or recurrent colonic/rectal cancer. This trial can evaluate the effect of the combination of Compound A, Nivolumab, and a XELOX plus Bevacizumab therapy.
Patients with radically unresectable advanced or recurrent colonic/rectal cancer.
At the time of registration, patients were selected, who had not been treated with a systemic antineoplastic agent for radically unresectable advanced or recurrent colonic/rectal cancer and who met all pre-determined patient selection criteria determined in view of the patient selection criteria in each trial performed so far for Compound A, Nivolumab and XELOX plus Bevacizumab therapy. When it became clear from the registration that the criteria were not satisfied before the first administration of the investigational new drug, the administration of the investigational new drug was not started and the study was discontinued. […]
A principal investigator or a sub-investigator measured a tumor diameter of a target lesion according to RECIST Guideline 1.1 to determine the antitumor effect. […]

[2] = tested on: curatively resectable locally advanced rectal cancer; assay: Open-label, uncontrolled study: Compound A or Compound A plus Nivolumab as preoperative adjuvant therapy after preoperative chemoradiotherapy; settings: Compound A 40 mg QD oral alone then with Nivolumab 240 mg Q2W IV (cohort 1) or in combination (cohort 2), after preoperative CRT; pCR = AJCC Tumor regression grade 0 (ypT0N0); 10 months after registration of the first patient
Source text: The purpose of this study was to examine the efficacy, pharmacokinetics and safety of Compound A administered alone and/or Compound A and Nivolumab administered in combination as a preoperative adjuvant therapy after a preoperative chemoradiotherapy (CRT) for curatively resectable locally advanced rectal cancer. The trial could evaluate the effect of Compound A and/or a combination of Compound A and Nivolumab as a preoperative adjuvant therapy.
Curatively Resectable Locally Advanced Rectal Cancer
As the preoperative CRT, the investigational new drug was administered to a patient who was treated and satisfied the following conditions. • 45 Gy/25 times of irradiation to the pelvic cavity and 5.4 Gy/3 times of boost irradiation to the primary lesion were performed. • the administration of Capecitabine was started at a dose of 1,650 mg/m^2 (825 mg/m^2 twice a day) per day. The starting dose was determined based on Method D of dosage and administration of Xeloda (registered trademark) tablet 300. • The oral administration of Capecitabine was performed in a period corresponding to 75% of 28 times which was the number of times of irradiation of radioactive ray in combination with the irradiation of radioactive ray (for example, in the case of 50.4 Gy/28 times of irradiation, oral administration for 21 days or 42 times or more as oral administration in the morning and evening). […]

[3] = tested on: pancreatic cancer with distant metastasis; assay: Open-label, uncontrolled study: Compound A, Nivolumab and mFFX therapy or GnP therapy as primary treatment; settings: RECIST Guideline 1.1
Source text: This study aims to study the tolerability, safety and efficacy of a combination of Compound A as a primary treatment, Nivolumab and mFFX therapy or GP therapy in pancreatic cancer patients with distant metastases. The trial could evaluate the effect of the combination with Compound A, Nivolumab and mFFX therapy or Gnp therapy.
Pancreatic cancer patients with distant metastases
At the time of registration, patients who had not been treated with systemic antineoplastic agents for pancreatic cancer with distant metastases and who met all pre-determined patient selection criteria determined in view of the patient selection criteria in each trial performed so far for Compound A, Nivolumab and mFFX therapy or GnP therapy were selected.
Compound A was orally administered once a day at a dose of 20 mg or 40 mg per administration, wherein the administration was continued until predetermined criteria for discontinuation of administration related to Compound A was met. Note that when Compound A, Nivolumab and the mFFX therapy or GnP therapy were administered on the same day, Compound A and Nivolumab were administered first, and after Compound A and Nivolumab were administered, followed by starting of the mFFX therapy or GnP therapy. […]

[4] = tested on: advanced or recurrent non-small cell lung cancer refractory to a combination therapy including an anti-PD-1 antibody or an anti-PD-L1 antibody, and a platinum …; assay: Open-label, uncontrolled study: Compound A, Nivolumab, Docetaxel and Ramucirumab as secondary therapy; settings: Compound A 20 mg or 40 mg orally once a day + Nivolumab 360 mg IV at 3-week intervals + Docetaxel 60 mg/m^2 and Ramucirumab 10 mg/kg at 3-week intervals; RECIST Guideline 1.1; 8 months after the registration of the first patient
Source text: The purpose of this study is to examine the tolerability, safety, and efficacy of a combination of Compound A, Nivolumab, Docetaxel, and Ramucirumab as a secondary therapy in non-small cell lung cancer patients who had progressed or relapsed refractory to a combination therapy including an anti-PD-1 antibody or an anti-PD-L1 antibody and a platinum preparation. This trial can evaluate the effect of combination of Compound A, Nivolumab, Docetaxel, and Ramucirumab.
Patients with stage IV or recurrent non-small cell lung cancer
Compound A was orally administered once a day at a dose of 20 mg or 40 mg per administration, and the administration was continued until the predetermined criteria for discontinuation of administration related to Compound A were met. […]
A principal investigator or a sub-investigator measured a tumor diameter of a target lesion according to RECIST Guideline 1.1 to determine the antitumor effect. […] Imaging diagnosis in the treatment phase was performed at 6-week intervals (±7 days) from Day 1 of the first cycle to Week 54, and thereafter at 12-week intervals (±7 days), and the tumor diameter was measured.
The overall response and the best overall response were diagnostic imaging results evaluated based on the RECIST Guideline 1.1. […]

## CC(C)NC(=O)c1ccc2c(c1)[C@]1(CCO2)C[C@H]1C(=O)Nc1cc(C#N)ccc1CCCC(=O)O [Compound A, 4-[4-cyano-2-({(2′R,4S)-6-[(propane-2-yl)carbamoyl]-2,3-dihydrospiro[1-benzopyran-4,1′-cyclopropane]-2′-carbonyl}amino)phenyl]butanoic acid]
[1]
  cases determined to be PR: 2 cases
[2]
  cases determined to be pCR: 3 cases
[3]; Compound A 20 mg or 40 mg orally once a day + Nivolumab 480 mg IV at 4-week intervals + GnP therapy, 9 months after registration of the first patient
  cases judged to be PR: two
[3]; Compound A 20 mg or 40 mg orally once a day + Nivolumab 480 mg IV at 4-week intervals + mFFX therapy, 9 months after the registration of the first patient
  case determined to be PR: one
[4]
  case determined to be PR: one
